This test concerns the target T1, Axl (Homo sapiens, UniProt P30530).
T1 construct: endogenous in cells; host or cells: HeLa
T1 sequence (P30530 26-894): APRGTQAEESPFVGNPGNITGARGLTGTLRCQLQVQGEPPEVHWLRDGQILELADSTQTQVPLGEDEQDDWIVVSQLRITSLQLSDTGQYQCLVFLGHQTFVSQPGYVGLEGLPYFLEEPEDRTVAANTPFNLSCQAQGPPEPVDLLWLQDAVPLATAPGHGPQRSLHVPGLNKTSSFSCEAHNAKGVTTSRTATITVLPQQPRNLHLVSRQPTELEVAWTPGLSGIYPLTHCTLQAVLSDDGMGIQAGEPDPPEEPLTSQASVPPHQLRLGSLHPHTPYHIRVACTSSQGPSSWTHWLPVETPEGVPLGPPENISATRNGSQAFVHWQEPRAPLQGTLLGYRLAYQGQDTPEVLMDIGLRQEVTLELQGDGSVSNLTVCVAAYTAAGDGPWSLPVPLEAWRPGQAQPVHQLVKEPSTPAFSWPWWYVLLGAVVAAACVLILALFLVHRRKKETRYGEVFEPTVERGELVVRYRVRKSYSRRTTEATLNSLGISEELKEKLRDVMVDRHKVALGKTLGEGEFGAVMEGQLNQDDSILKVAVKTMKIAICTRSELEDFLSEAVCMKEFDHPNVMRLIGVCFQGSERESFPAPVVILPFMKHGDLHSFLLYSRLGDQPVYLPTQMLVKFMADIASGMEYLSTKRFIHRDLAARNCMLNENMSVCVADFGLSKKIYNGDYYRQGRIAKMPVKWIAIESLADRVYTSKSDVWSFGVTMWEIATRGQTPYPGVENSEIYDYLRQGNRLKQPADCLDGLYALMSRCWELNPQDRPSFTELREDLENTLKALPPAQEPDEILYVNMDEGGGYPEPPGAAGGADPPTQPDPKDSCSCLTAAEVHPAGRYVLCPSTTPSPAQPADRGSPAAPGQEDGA
The test can be described thus: Phospho-AKT in-cell Western assay (inhibition of Axl activity). As to conditions: Hela cells, Axl antibody cross-linking stimulation, phospho-Akt chemiluminescence normalized to relative cell number. The format is cell-based. The gist of the method: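 HeLa cells were starved 24 h in 0.5% FCS with Axl/Fc 500 ng/mL, pre-treated with compound for 1 h at 37 °C, then stimulated 5 min by anti-Axl antibody cross-linking. Fixed cells were probed for phospho-AKT with an HRP-linked in-cell Western and read by chemiluminescence.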

Where only a bound is given, the exact number is not on record here.

In the case of `CNC(=O)[C@H]1C[C@H]2C[C@H](C2(C)C)[C@@]1(C)Nc1nc(Nc2ccc3c(c2)OCCN3CCN2CCCCC2)ncc1Cl` [Compound 56, (1R,2R,3S,5R)-2-(5-chloro-2-((3,4-dihydro-4-(2-(piperidin-1-yl)ethyl)-2H-benzo[b][1,4]oxazin-7-yl)amino)pyrimidin-4-ylamino)-N,2,6,6-tetramethylbicyclo[3.1.1]heptane-3-carboxamide], the IC50 (as a rule, the point on the concentration scale where inhibition reaches its midpoint) (Table 3, formula (Ic)) was less than 1 µM.

`CCN(CC)CCN1CCOc2cc(Nc3ncc(C(F)(F)F)c(N[C@@]4(C)[C@@H](C(=O)NC)C[C@H]5C[C@@H]4C5(C)C)n3)ccc21` [Compound 53, (1R,2R,3S,5R)-2-(5-trifluoromethyl-2-((3,4-dihydro-4-(2-(diethylamino)ethyl)-2H-benzo[b][1,4]oxazin-7-yl)-amino)pyrimidin-4-ylamino)-N,2,6,6-tetramethylbicyclo[3.1.1]heptane-3-carboxamide] had an IC50 (Table 3, formula (Ic)) of less than 1 µM.

Compound `CC1(C)[C@H]2C[C@H](C(N)=O)[C@](C)(Nc3nc(Nc4ccc(OCCN5CCCC5)c(F)c4)ncc3Cl)[C@@H]1C2` [Compound 30, (1R,2R,3S,5R)-2-(5-chloro-2-(3-fluoro-4-(2-(pyrrolidin-1-yl)ethoxy)phenylamino)pyrimidin-4-ylamino)-2,6,6-trimethylbicyclo[3.1.1]heptane-3-carboxamide] registered an IC50 (Table 1, formula (Ia)) of less than 1 µM.

Where the note is “Table 3, formula (Ic)”, `CNC(=O)[C@H]1C[C@H]2C[C@H](C2(C)C)[C@@]1(C)Nc1nc(Nc2ccc3c(c2)OCCN3CCN(C)C)ncc1C` [Compound 49, (1R,2R,3S,5R)-2-(5-methyl-2-((3,4-dihydro-4-(2-(dimethylamino)ethyl)-2H-benzo[b][1,4]oxazin-7-yl)amino)pyrimidin-4-ylamino)-N,2,6,6-tetramethylbicyclo[3.1.1]heptane-3-carboxamide] came in with an IC50 of 1 to 10 µM.

In the case of `CCN(CC)C1CCN(c2ccc(Nc3ncc(C(F)(F)F)c(N[C@@]4(C)[C@@H](C(=O)NC)C[C@H]5C[C@@H]4C5(C)C)n3)cc2F)CC1` [Compound 52, (1R,2R,3S,5R)-2-(5-trifluoromethyl-2-(3-fluoro-4-(4-(diethylamino)piperidin-1-yl)phenylamino)pyrimidin-4-ylamino)-N,2,6,6-tetramethylbicyclo[3.1.1]heptane-3-carboxamide], under “Table 1, formula (Ia)”, the IC50 is less than 1 µM.

Regarding `CNC(=O)[C@@H]1C[C@@H]2C[C@@H](C2(C)C)[C@]1(C)Nc1nc(Nc2ccc(OCCN3CCCC3)c(F)c2)ncc1Cl` [Compound 23, (1S,2S,3R,5S)-2-(5-chloro-2-(3-fluoro-4-(2-(pyrrolidin-1-yl)ethoxy)phenylamino)pyrimidin-4-ylamino)-N,2,6,6-tetramethylbicyclo[3.1.1]heptane-3-carboxamide], the IC50 (Table 2, formula (Ib)) lay in the range of 1 to 10 µM.

For `CNC(=O)[C@H]1C[C@H]2C[C@H](C2(C)C)[C@@]1(C)Nc1nc(Nc2ccc3c(c2)OCCN3CCN2CCOCC2)ncc1F` [Compound 59, (1R,2R,3S,5R)-2-(5-fluoro-2-((3,4-dihydro-4-(2-(morpholin-4-yl)ethyl)-2H-benzo[b][1,4]oxazin-7-yl)amino)pyrimidin-4-ylamino)-N,2,6,6-tetramethylbicyclo[3.1.1]heptane-3-carboxamide], the IC50 (Table 3, formula (Ic)) fell in the range of 1 to 10 µM.

The values above are taken from patent US8563559B2 (Rigel Pharmaceuticals, Inc., priority 2006, dated 2013).
